Test results as given in article PMC10304880, “Novel Tryptanthrin Derivatives with Selectivity as c–Jun N–Terminal Kinase (JNK) 3 Inhibitors” (Molecules, 2023).

Experiments:
JNK2 = molecular target: T1, JNK2 (Homo sapiens, UniProt P45984); experiment: KINOMEscan JNK2 binding (Kd); conditions: 12-point series, max 33 μM, duplicate
T1 construct: purchased Eurofins Pharma Discovery (KINOMEscan service)
Protocol: (§1) All compounds were evaluated for their ability to bind to JNK1-3 using the KINOMEscan platform.
(§2) Compounds were submitted for dissociation constant (Kd) determination using KINOMEscan (Eurofins Pharma Discovery, San Diego, CA, USA), as described previously. […] Primary screening at fixed concentrations of compounds was performed in duplicate. To determine dissociation constant Kd, a 12-point half-log dilution series (a maximum concentration of 33 μM) was used.

JNK3 = molecular target: T2, JNK3 (Homo sapiens, UniProt P53779); experiment: KINOMEscan JNK3 binding (Kd); conditions: for Kd: KINOMEscan, 12-point series, max 33 μM, duplicate; for Selectivity Index JNK1/JNK3 / Selectivity Index JNK2/JNK3: ratio of Kd values
T2 construct: purchased Eurofins Pharma Discovery (KINOMEscan service)
Protocol: as §1, §2

JNK1 = molecular target: T3, JNK1 (Homo sapiens, UniProt P45983); experiment: KINOMEscan JNK1 binding (Kd); conditions: 12-point series, max 33 μM, duplicate
T3 construct: purchased Eurofins Pharma Discovery (KINOMEscan service)
Protocol: as §1, §2

[1] = CellTiter-Glo cytotoxicity in THP-1Blue cells; assay type: cell-based; conditions: human, 24 h incubation
Protocol: (§3) Prior to evaluation of the compounds in cell-based assays, we measured their cytotoxicity in human monocytic THP-1Blue and MonoMac-6 cells during a 24 h incubation. […] Thus, these compounds were all excluded from subsequent testing in these cell lines.
(§4) Cytotoxicity was analyzed with a CellTiter-Glo Luminescent Cell Viability Assay Kit from Promega (Madison, WI, USA), according to the manufacturer’s protocol. Cells were treated with the compound under investigation and cultivated for 24 h. After treatment, the cells were allowed to equilibrate to room temperature for 30 min, substrate was added, and the luminescence measured using a Fluoroscan Ascent FL (Thermo Fisher Scientific, Waltham, MA, USA). The cell IC50 values were calculated by plotting the percentage inhibition against the logarithm of inhibitor concentration (at least five points).

[2] = CellTiter-Glo cytotoxicity in MonoMac-6 cells; assay type: cell-based; conditions: human, 24 h incubation
Protocol: as §3, §4

[3] = tested on: NF-κB/AP-1 transcriptional activity in THP-1Blue cells; experiment: LPS-induced NF-κB/AP-1 alkaline phosphatase reporter assay in THP-1Blue cells; assay type: cell-based; conditions: Homo sapiens, 30 min pretreatment, 250 ng/mL LPS, 24 h; read-out: AP Production in THP–1Blue IC50
Protocol: Activation of AP-1/NF-κB was measured using an alkaline phosphatase reporter gene assay in THP1-Blue cells. Human monocytic THP-1Blue cells were stably transfected with a secreted embryonic alkaline phosphatase gene that was under the control of a promoter inducible by AP-1/NF-κB.
(§5) Figure 2 Effect of compounds 4d and 4e on NF-κB/AP-1 activity and IL-6 production. Panel (A) THP-1Blue cells were pretreated with the indicated compounds or DMSO for 30 min, followed by addition of 250 ng/mL LPS or buffer for 24 h. […] Panel (B) MonoMac-6 cells were pretreated with the indicated compounds or DMSO for 30 min, followed by addition of 250 ng/mL LPS or buffer for 24 h. Production of IL-6 in the supernatants was evaluated with ELISA. The data in each panel are presented as the mean ± S.D. of triplicate samples from one experiment that is representative of three independent experiments.

[4] = tested on: IL-6 production in MonoMac-6 cells; experiment: LPS-induced IL-6 production in MonoMac-6 cells (ELISA); assay type: cell-based, human; conditions: 250 ng/mL LPS, 24 h
Protocol: All cells were cultured at 37 °C in a humidified atmosphere containing 5% CO2. Human THP-1Blue monocytic cells obtained from InvivoGen (San Diego, CA, USA) were cultured in RPMI 1640 medium (Mediatech Inc., Herndon, VA, USA) supplemented with 10% (v/v) fetal bovine serum (FBS), 4.5 g/L glucose, 100 μg/mL streptomycin, 100 U/mL penicillin, 100 μg/mL phleomycin (Zeocin), and 10 μg/mL blasticidin S. Human monocyte-macrophage MonoMac-6 cells (Deutsche Sammlung von Mikroorganismen und Zellkulturen GmbH, Braunschweig, Germany) were grown in RPMI 1640 medium supplemented with 10% (v/v) FBS, 10 μg/mL bovine insulin, 100 μg/mL streptomycin, and 100 U/mL penicillin.
as §5, with “Panel” for “Figure 2 Effect of compounds 4d and 4e on NF-κB/AP-1 activity and IL-6 production. Panel”

[5] = Homo sapiens, MONO-MAC-6, 30 min pretreatment

T1 sequence (P45984 whole entry): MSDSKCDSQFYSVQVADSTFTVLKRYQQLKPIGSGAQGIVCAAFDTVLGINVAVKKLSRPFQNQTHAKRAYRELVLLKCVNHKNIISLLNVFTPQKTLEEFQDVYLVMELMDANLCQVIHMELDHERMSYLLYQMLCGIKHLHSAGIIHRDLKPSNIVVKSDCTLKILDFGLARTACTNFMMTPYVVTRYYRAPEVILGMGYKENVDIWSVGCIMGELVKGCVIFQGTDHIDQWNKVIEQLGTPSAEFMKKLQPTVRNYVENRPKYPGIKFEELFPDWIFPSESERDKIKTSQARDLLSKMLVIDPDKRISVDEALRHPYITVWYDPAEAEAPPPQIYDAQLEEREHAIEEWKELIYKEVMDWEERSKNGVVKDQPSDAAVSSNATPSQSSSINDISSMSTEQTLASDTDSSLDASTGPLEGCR
T2 sequence (P53779 whole entry): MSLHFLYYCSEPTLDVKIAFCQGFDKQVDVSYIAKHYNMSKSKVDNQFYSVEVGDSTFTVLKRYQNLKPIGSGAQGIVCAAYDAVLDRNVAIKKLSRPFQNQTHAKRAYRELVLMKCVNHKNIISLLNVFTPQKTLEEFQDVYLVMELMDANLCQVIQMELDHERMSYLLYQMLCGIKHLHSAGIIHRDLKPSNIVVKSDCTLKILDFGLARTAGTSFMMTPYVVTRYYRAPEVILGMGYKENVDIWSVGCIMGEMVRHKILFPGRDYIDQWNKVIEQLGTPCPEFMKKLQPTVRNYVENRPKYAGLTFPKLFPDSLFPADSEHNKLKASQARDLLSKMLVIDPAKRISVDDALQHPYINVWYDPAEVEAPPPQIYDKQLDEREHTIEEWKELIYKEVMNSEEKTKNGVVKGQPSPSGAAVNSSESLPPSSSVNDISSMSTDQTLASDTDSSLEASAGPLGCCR
T3 sequence (P45983 whole entry): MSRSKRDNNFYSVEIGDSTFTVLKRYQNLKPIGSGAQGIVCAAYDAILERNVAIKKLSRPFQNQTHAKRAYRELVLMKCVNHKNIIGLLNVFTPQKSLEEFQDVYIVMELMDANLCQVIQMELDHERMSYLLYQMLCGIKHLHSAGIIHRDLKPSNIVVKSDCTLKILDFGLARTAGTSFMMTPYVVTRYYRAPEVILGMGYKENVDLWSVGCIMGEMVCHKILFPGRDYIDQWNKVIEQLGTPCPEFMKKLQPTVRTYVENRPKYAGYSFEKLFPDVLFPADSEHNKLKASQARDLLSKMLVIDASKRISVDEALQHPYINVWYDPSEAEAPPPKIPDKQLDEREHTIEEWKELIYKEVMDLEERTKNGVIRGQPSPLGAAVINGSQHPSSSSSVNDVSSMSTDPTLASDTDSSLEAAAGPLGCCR

| SMILES | Kd (JNK2) [µM] | selectivity index (JNK3 versus JNK1 and JNK2) (JNK3) | Kd (JNK3) [µM] | Selectivity Index JNK1/JNK3 (JNK3) | Selectivity Index JNK2/JNK3 (JNK3) | Kd (JNK1) [µM] | IC50 at 24 h [1] [µM] | IC50 at 24 h [2] [µM] | IC50 [3] [µM] | melting point | IC50 [4, 5] [µM] | IC50 ([4]; 30 min pretreatment) [µM] |
| --- | --- | --- | --- | --- | --- | --- | --- | --- | --- | --- | --- | --- |
| O=c1c2ccccc2nc2n1-c1ccc([N+](=O)[O-])cc1C2=NO [Compound 4a, 8-Nitroindolo[2,1-b]quinazolin-6,12-dione Oxime] | > 30 | > 7 | 0.86 ± 0.042 | >40 | >40 | > 30 | 8.4 ± 0.9 | 4.1 ± 0.7 | – | – | – | – |
| O=c1c2ccccc2nc2n1-c1ccc(Br)cc1C2=NO [Compound 4b, 8-Bromoindolo[2,1-b]quinazolin-6,12-dione Oxime] | 8.5 ± 3.2 | > 7 | 0.41 ± 0.07 | 7.8 | 20.7 | 3.2 ± 0.21 | > 50 | > 50 | 2.1 ± 0.7 | > 225 °C (dec.) | 15.5 ± 3.8 | – |
| CCc1ccc2c(c1)C(=NO)c1nc3ccccc3c(=O)n1-2 [Compound 4c, 8-Ethylindolo[2,1-b]quinazolin-6,12-dione Oxime] | 1.3 ± 0.01 | – | 0.49 ± 0.09 | 5.3 | 2.7 | 2.6 ± 0.4 | > 50 | 13.3 ± 1.3 | 0.7 ± 0.2 | > 225 °C (dec.) | – | – |
| O=c1c2cc(Br)ccc2nc2n1-c1ccc([N+](=O)[O-])cc1C2=NO [Compound 4f, 2-Bromo-8-nitroindolo[2,1-b]quinazolin-6,12-dione Oxime] | > 30 | – | > 30 | – | – | > 30 | 3.8 ± 0.9 | 2.7 ± 0.6 | – | > 225 °C (dec.) | – | – |
| Cc1cccc2c1C(=NO)c1nc3ccccc3c(=O)n1-2 [Compound 4g, 7-Methylindolo[2,1-b]quinazolin-6,12-dione Oxime] | 14 ± 0.7 | – | 0.4 ± 0.04 | 15.5 | 35 | 6.2 ± 1.8 | > 50 | > 50 | > 50 | > 225 °C (dec.) | 25.2 ± 5.3 | – |
| O=c1c2cc(C(F)(F)F)ccc2nc2n1-c1ccccc1C2=NO [Compound 4i, 2-Trifluoromethylindolo[2,1-b]quinazolin-6,12-dione Oxime] | > 30 | – | 11 ± 1.4 | >3 | >3 | > 30 | 5.6 ± 1.2 | 5.7 ± 1.2 | – | > 225 °C (dec.) | – | – |
| O=c1c2cc(Br)ccc2nc2n1-c1ccccc1C2=NO [Compound 4j, 2-Bromoindolo[2,1-b]quinazolin-6,12-dione Oxime] | 7.4 ± 0.6 | – | 1.9 ± 0.4 | 2.2 | 3.9 | 4.1 ± 0.6 | 12.5 ± 2.3 | 8.2 ± 1.6 | – | > 225 °C (dec.) | – | – |
| O=c1c2ccc(Br)cc2nc2n1-c1ccccc1C2=NO [Compound 4k, 3-Bromoindolo[2,1-b]quinazolin-6,12-dione Oxime] | > 30 | – | 5.7 ± 1.8 | >6 | >6 | > 30 | 24.1 ± 2.7 | > 50 | – | > 225 °C (dec.) | – | – |
| O=c1c2ccc(F)cc2nc2n1-c1ccccc1C2=NO [Compound 4l, 3-Fluoroindolo[2,1-b]quinazolin-6,12-dione Oxime] | 0.72 ± 0.22 | – | 0.43 ± 0.04 | 2.6 | 1.7 | 1.1 ± 0.1 | > 50 | > 50 | 5 ± 0.1 | > 225 °C (dec.) | < 1 | 0.61 ± 0.04 |
| O=c1c2ccc([N+](=O)[O-])cc2nc2n1-c1ccccc1C2=NO [Compound 4m, 3-Nitroindolo[2,1-b]quinazolin-6,12-dione Oxime] | > 30 | – | 6.1 ± 0.4 | >5.6 | >5.6 | > 30 | > 50 | > 50 | 8.3 ± 0.2 | > 225 °C (dec.) | 1.9 ± 0.3 | – |
| O=c1c2cc([N+](=O)[O-])ccc2nc2n1-c1ccccc1C2=NO [Compound 4n, 2-Nitroindolo[2,1-b]quinazolin-6,12-dione Oxime] | > 30 | – | 8.7 ± 1 | >3.9 | >3.9 | > 30 | 39.3 ± 3.1 | > 50 | – | > 225 °C (dec.) | 9.6 ± 1.3 | – |
| Cc1ccc2c(c1)C(=NO)c1nc3ccc(C)cc3c(=O)n1-2 [Compound 4o, 2,8-Dimethylindolo[2,1-b]quinazolin-6,12-dione Oxime] | 6.9 ± 0.2 | – | 0.87 ± 0.16 | 4.3 | 7.9 | 3.7 ± 0.5 | > 50 | > 50 | 8.1 ± 0.1 | > 300 °C (dec.) | < 1 | 0.8 ± 0.1 |
| Cc1cccc2c1C(=NO)c1nc3cccc(C)c3c(=O)n1-2 [Compound 4p, 1,7-Dimethylindolo[2,1-b]quinazolin-6,12-dione Oxime] | > 30 | – | > 30 | – | – | > 30 | > 50 | > 50 | > 50 | 190 to 191 °C | > 50 | – |
| COc1ccc2c(c1)-n1c(nc3cc(OC)ccc3c1=O)C2=NO [Compound 4r, 3,9-Dimethoxylindolo[2,1-b]quinazolin-6,12-dione Oxime] | 5.8 ± 1.6 | – | 3.2 ± 1.1 | 1.4 | 1.8 | 4.6 ± 0.6 | 8.3 ± 1.3 | 4.3 ± 0.9 | – | 292 to 293 °C | – | – |
| O=c1c2ccc(Br)cc2nc2n1-c1cc(Br)ccc1C2=NO [Compound 4s, 3,9-Dibromoindolo[2,1-b]quinazolin-6,12-dione Oxime] | > 30 | – | > 30 | – | – | > 30 | 49.1 ± 8.3 | 16.9 ± 3.4 | – | > 300 °C (dec.) | – | – |
| O=c1c2cc(Br)ccc2nc2n1-c1ccc(Br)cc1C2=NO [Compound 4t, 2,8-Dibromoindolo[2,1-b]quinazolin-6,12-dione Oxime] | > 30 | – | > 30 | – | – | > 30 | 6.6 ± 0.3 | 9.2 ± 2.1 | – | 250 to 251 °C | – | – |
| O=C(ON=C1c2ccccc2-n2c1nc1ccccc1c2=O)c1ccc2c(c1)OCO2 [Compound 5e, 6-(((Benzo[d][1,3]dioxol-5-carbonyl)oxy)imino)indolo[2,1-b]quinazolin-12(6H)-one] | 1.5 ± 0.6 | – | 0.27 ± 0.01 | 1.7 | – | 0.47 ± 0.08 | > 50 | 27.3 ± 1.4 | 3.5 ± 1.2 | 206 to 208 °C | – | – |
| O=c1c2ccccc2nc2n1-c1ccccc1C2=NO [TRYP-Ox, tryptanthrin-6-oxime, reference compound] | – | – | – | – | – | – | > 50 | > 50 | 3.8 ± 1.1 | – | – | – |
